“Also recorded” adds a separate entry of the source.
Experiments:
[1] = test system: HUVECs; assay: Treatment of unstimulated HUVECs: apoptosis and baseline ICAM-1 expression; conditions: up to 10 μmol/L, HUVECs without TNF-α (data not shown)
[2] = test system: ICAM-1; assay: TNF-α-induced cell surface expression of ICAM-1 in HUVECs measured by FACS; type: cell-based, human; conditions: then 5 ng/ml TNF-α; for effect on TNF-α-induced ICAM-1 expression (in words): pretreatment 6 hours (up to 10 μmol/L); for reduction of TNF-α-induced ICAM-1 expression: 10 μmol/L pretreatment 6 hours, vs TNF-α-stimulated control cells
Experimental: The expression of ICAM-1 on the cell surface was determined in HUVECs cultured in six-well plates pretreated with one of the three different p-substituted phenyl DIM analogs or with vehicle (0.1% DMSO) at the concentrations indicated. Their effects were compared with those of other PPARγ agonists by preincubating HUVECs with ciglitazone (Biomol, Plymouth meeting, Pa.) or 15d-PGJ2 (Calbiochem, San Diego, Calif.) at the same doses.
After 6 hours, cells were incubated with TNF-α (R&D Systems, Minneapolis, Minn.) at a concentration of 5 ng/ml for 12 hours. Cells were then detached with 10 mmol/L EDTA in 0.5% phosphate-buffered saline, collected by centrifugation, and stained for 30 minutes on ice in the dark with R-phycoerythrin-labeled monoclonal antibody against ICAM-1 (CD54) or with the appropriate R-phycoerythrin-labeled isotype IgG (Pharmingen, San Diego, Calif.) as a control.
The fluorescence intensity of 10,000 gated viable cells was analyzed for each sample on a FACSCalibur Flow Cytometer (Becton Dickinson Immunocytometry Systems, San Diego, Calif.) using Cell Quest (Becton Dickinson) acquisition software. All experiments were performed in triplicate.

[3] = test system: IL-6; assay: IL-6 production in supernatants of TNF-α-stimulated HUVECs, ELISA; type: cell-based, human; conditions: for IL-6 level in supernatant after TNF-α stimulation: 10 μmol/L pretreatment 6 hours, then 5 ng/ml TNF-α 6 hours, TNF-α alone 228±12.7, baseline 52.8±7.5; for effect on TNF-α-induced IL-6 production (in words): 10 μmol/L pretreatment, 5 ng/ml TNF-α
Experimental: (§1) In order to measure chemokine levels in the cell supernatant, HUVECs cultured in 24-well plates were preincubated for 6 hours with one of the three p-substituted phenyl DIM analogs at the concentrations indicated or with vehicle and then stimulated with 5 ng/ml TNF-α. For comparison, HUVECs were also preincubated with ciglitazone or 15d-PGJ2 at the same concentrations and then stimulated with TNF-α at a concentration of 5 ng/ml. Cell culture supernatants were collected 6 and 24 hours after the stimulation for analysis of IL-6 and MCP-1, respectively.
(§2) The levels of IL-6 and MCP-1 were quantified using commercial ELISA kits (BioSource International, Camarillo, Calif.) according to the manufacturer's directions. The minimum detectable concentration of the assay was 2 pg/ml for IL-6 and <20 pg/ml for MCP-1. All experiments were performed in triplicate.
(§3) To determine the effects of the three p-substituted phenyl DIM analogs on TNF-α-induced chemokine production in HUVECs, cells were pretreated for 6 hours with one of the three analogs at the concentrations indicated or with vehicle and then stimulated with 5 ng/ml TNF-α for the indicated time before the chemokine assays were performed.

[4] = test system: MCP-1; assay: MCP-1 production in supernatants of TNF-α-stimulated HUVECs, ELISA; type: cell-based, human; conditions: for effect on TNF-α-induced MCP-1 production (in words): 10 μmol/L pretreatment, 5 ng/ml TNF-α; for MCP-1 level in supernatant after TNF-α stimulation: 10 μmol/L pretreatment 6 hours
Experimental: as §1, §2, §3

[5] = target: T1, PPAR-γ (Homo sapiens, UniProt P37231); conditions: earlier structure-activity studies [5]; cited from earlier work
T1 sequence (P37231 1-505): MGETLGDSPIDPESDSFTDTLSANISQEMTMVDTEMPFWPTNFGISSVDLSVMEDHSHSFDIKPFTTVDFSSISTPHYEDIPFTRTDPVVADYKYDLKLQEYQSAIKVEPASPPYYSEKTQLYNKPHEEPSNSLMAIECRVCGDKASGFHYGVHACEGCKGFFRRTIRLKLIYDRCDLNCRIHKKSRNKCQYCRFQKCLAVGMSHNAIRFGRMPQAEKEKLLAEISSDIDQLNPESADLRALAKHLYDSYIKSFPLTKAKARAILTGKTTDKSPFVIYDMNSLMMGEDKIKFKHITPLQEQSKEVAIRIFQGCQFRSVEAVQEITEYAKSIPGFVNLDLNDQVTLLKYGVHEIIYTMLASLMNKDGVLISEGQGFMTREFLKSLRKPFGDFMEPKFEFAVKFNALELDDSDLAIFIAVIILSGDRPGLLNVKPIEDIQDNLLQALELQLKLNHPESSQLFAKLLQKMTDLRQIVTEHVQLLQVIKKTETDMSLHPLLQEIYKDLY

[6] = then 5 ng/ml TNF-α 24 hours, TNF-α alone 7.8±0.19, baseline 1.05±0.07

SMILES	induction of apoptosis [1]	effect on TNF-α-induced ICAM-1 expression (in words) [2]	IL-6 level in supernatant after TNF-α stimulation [3]	effect on TNF-α-induced IL-6 production (in words) [3]	effect on TNF-α-induced MCP-1 production (in words) [4]	change of baseline expression of ICAM-1 [1]	reduction of TNF-α-induced ICAM-1 expression [2]	MCP-1 level in supernatant after TNF-α stimulation ([4]; then 5 ng/mL TNF-α, comparison agonists)	PPAR-γ agonist activity [5]	MCP-1 level in supernatant after TNF-α stimulation [4, 6]
CC1(COc2ccc(CC3SC(=O)NC3=O)cc2)CCCCC1 (stereo not shown) [ciglitazone, reference compound]	did not induce apoptosis	inactive; also recorded: no inhibitory effect	207 ± 13 pg/mL	inactive	inactive	–	–	–	–	–
CCCCC/C=C/C=C1/C(=O)C=C[C@@H]1C/C=C\CCCC(=O)O [15d-PGJ2, 15-deoxy-δ^12,14-prostaglandin J2, reference compound]	–	significantly inhibited; also recorded: decreased	29.8 ± 1.6 pg/mL	significantly inhibited	significantly inhibited	did not induce apoptosis or change the baseline expression of ICAM-1	84.4%	1.5 ± 0.3 ng/mL	–	–
c1ccc(-c2ccc(C(c3c[nH]c4ccccc34)c3c[nH]c4ccccc34)cc2)cc1 [DIM-C-pPhC6H5, 1,1-bis(3′-indolyl)-1-(p-biphenyl) methane]	–	inhibited; also recorded: decreased	143.4 ± 12.2 pg/mL	inhibited	inhibited	–	71.3%	–	potent; also recorded: active agents	2.2 ± 0.49 ng/mL
Cc1ccc(C(c2c[nH]c3ccccc23)c2c[nH]c3ccccc23)cc1 [DIM-C-pPhCH3]	–	lower activity; also recorded: inactive	–	lower activity; also recorded: did not decrease; also recorded: did not significantly inhibit	lower activity; also recorded: did not decrease; also recorded: did not affect	–	32%	–	less active; also recorded: low PPAR-γ agonist activity; also recorded: relatively inactive	–
CC(C)(C)c1ccc(C(c2c[nH]c3ccccc23)c2c[nH]c3ccccc23)cc1 [DIM-C-pPhtBu, 1,1-bis(3′-indolyl)-1-(p-t-butylphenyl) methane]	–	inhibited; also recorded: decreased the expression of ICAM-1 in a concentration-dependent manner	130.3 ± 19.3 pg/mL	inhibited	inhibited	–	77.5%	–	potent; also recorded: active agents	3.9 ± 0.41 ng/mL

From patent US20060079568A1, “Inhibition of atherosclerosis by diindolylmethane analogs” (The Texas A&M University System, priority 2004, published 2006)
